Measurements from ChEMBL document CHEMBL1140832, “Antimitotic quinoid triterpenes from Maytenus chuchuhuasca” (Bioorg Med Chem Lett, 2008).
Active and inactive are the calls of the source. The rule behind the calls is not given here.

Experiments:
[1] = Inhibition of tubulin polymerization at 100 uM
[2] = Inhibition of tubulin polymerization
[3] = test system: RPMI-8226; test: Growth inhibition of human RPMI8226 cells; format: functional, cell-based

In the case of `COC(=O)[C@]1(C)CC[C@]2(C)CC[C@]3(C)C4=CC(=O)c5c(cc(O)c(O)c5C)[C@]4(C)CC[C@@]3(C)[C@@H]2C1`, the Activity [1] is reported as “inactive”.

For `COc1c(O)cc2c(c1C)C(=O)C=C1[C@@]2(C)CC[C@@]2(C)[C@@H]3C[C@@H](C)C(=O)C[C@]3(C)CC[C@]12C`, the Activity [1] was “inactive”.

For `CC1=C(O)C(=O)C=C2C1=CC=C1[C@@]2(C)CC[C@@]2(C)[C@@H]3C[C@](C)(C(=O)O)CC[C@]3(C)CC[C@]12C` [CELASTROL], the IC50 [2] was 2 µM and the IC50 [3] was 3 µM.

`COC(=O)[C@]1(C)CC[C@]2(C)CC[C@]3(C)C4=CC=C5C(=CC(=O)C(O)=C5C)[C@]4(C)CC[C@@]3(C)[C@@H]2C1` [PRISTIMERIN] gave an IC50 [2] of 8 µM and an IC50 [3] of 16.6 µM.

`CC1=C(O)C(=O)C=C2C1=CC=C1[C@@]2(C)CC[C@@]2(C)[C@@H]3C[C@@H](C)C(=O)[C@@H](O)[C@]3(C)CC[C@]12C` [TINGENIN B] gave an IC50 [2] of 12 µM and an IC50 [3] of 18.3 µM.

Compound `CC1=C(O)C(=O)C=C2C1=CC=C1[C@@]2(C)CC[C@@]2(C)[C@@H]3C[C@@H](C)C(=O)C[C@]3(C)CC[C@]12C` [TINGENONE] has an IC50 [2] of 8 µM and an IC50 [3] of 7 µM.

Work on `CC[C@]1(O)C[C@@H]2CN(CCc3c([nH]c4ccccc34)[C@@](C(=O)OC)(c3cc4c(cc3OC)N(C)[C@H]3[C@@](O)(C(=O)OC)[C@H](OC(C)=O)[C@]5(CC)C=CCN6CC[C@]43[C@@H]65)C2)C1` [VINBLASTINE] yielded an IC50 [2] of 1 µM and an IC50 [3] of 0.028 µM.
